Results on 9 molecules are retold here after patent publication US20150233925A1, “Assays and Cell-Based Tests Using a Receptor Na/K-ATPase/Src Complex and Uses Thereof” (The University of Toledo, priority 2012, published 2015).

The structures appear in SMILES notation. “Also recorded” adds a separate entry of the source.

The test system of assay [1] is ouabain-induced signal transduction in cultured cells. Kind of assay: Ouabain-induced signal transduction in cultured cells. It counts as cell-based. How it is done:
(§1) To assay for receptor antagonist, the reconstituted receptor was exposed to compounds in the presence and absence of an agonist (ouabain) and then assessed whether the compounds could antagonize ouabain-induced activation of Src. To verify that they are specific antagonists of receptor Na/K-ATPase/Src complex, their effects on ouabain-, EGF- and dopamine-induced signal transduction was measured in LLC-PK1 and PY-17 cells.

Assay [2] deals with ERK in LLC-PK1 cells. Kind of assay: Western blot of activated-ERK in LLC-PK1 cells. The following applies: pretreated 30 min, ouabain 1 nM for 1 h. The class given is cell-based, pig. The protocol:
LLC-PK1 cells were serum-starved overnight, washed and pretreated with Ferulic acid (A) for 30 min. Both control and compounds-pretreated cells were exposed to ouabain (1 nM) for 1 h. Cell lysates were collected, separated by SDS-PAGE and probed for activated-ERK and total-ERK. A representative western blot is shown. The quantitative data from three to four separate experiments were presented. (***, p<0.001 vs control; #, p<0.05 vs Oua).
The experiments were done as in FIG. 6D. The quantitative data from four separate experiments were presented. (***, p<0.001 vs control; ## #, p<0.001 vs Oua).
(§2) Cells were washed with PBS and solubilized in modified ice-cold radioimmune precipitation assay buffer, and subjected to Western blot analysis. Protein signals were detected using an ECL kit and quantified using ImageJ.
In general terms: A western blot detects proteins with antibodies after separation by electrophoresis.

Assay [3] has as its target T1, Na/K-ATPase/Src receptor complex (Sus scrofa, UniProt P05024).
T1 construct: The α1 Na/K-ATPase was purified from pig kidney; tissue Upstate Biotechnology (Src only); host or cells: pig kidney (Na/K-ATPase)
The assay is described as follows: FRET based high throughput screen for agonists and antagonists. It counts as biochemical, pig. The following applies: screen with ouabain plus compounds, followed by cell-based analyses. The source says: Referring now to FIGS. 2A and 2B, there are shown schematic illustrations of a FRET based high throughput assay for agonist and antagonist. […] A pathway-based approach is useful to screen for agonists of Na/K-ATPase/Src receptor targets. Agonist can interact with Na/K-ATPase resulting Src phosphorylation. This active Src transfers the γ-phosphate of ATP to a single tyrosine residue in the synthetic peptide substrate. Then, a site specific protease recognizes and cleaves non-phosphorylated peptides. […] Cleavage disrupts FRET on the peptide, whereas uncleaved, phosphorylated peptides maintain FRET.
This assay is similar as the agonist screening. For example, in the presence of ouabain, antagonist can reduce ouabain induced peptide substrate phosphorylation.
(§3) In one example, the FRET-based in vitro high throughput assay utilizes the in vitro reconstitution of receptor Na/K-ATPase and Src, and a peptide Src substrate-based FRET assay. […] To reconstitute the receptor α1 Na/K-ATPase/Src complex, purified pig kidney Na/K-ATPase was mixed with purified recombinant Src. This receptor complex has an inhibited Src activity. The binding of agonists to the receptor complex releases the inhibited Src and result in an increase in Src activity, which is measured by a peptide-based FRET analysis (FIG. 2A, FIG. 2B). To screen the agonist of receptor Na/K-ATPase/Src complex, the reconstituted receptor is exposed to compounds, and then measured for Src activation using the peptide-based FRET assay.
The chemical library used for screening in the present study contained 100 structurally diverse, drug-like, naturally occurring organic compounds or their semisynthetic derivatives. Stock compounds were prepared at 10 mM in DMSO. The specific activities of Na/K-ATPase of various kidney preparations were in the range of 900-1,200 μmol/mg/h. The high throughput screen was conducted in a Corning 384-well low-volume assay plates at room temperature.
The first step was Kinase Reaction with the final reaction volume of 10 μl. The purified Src (4.5 U) was incubated with 2 μg of the purified Na/K-ATPase in phosphate-buffered saline (PBS) for 5 min. Afterward, the Na/K-ATPase/Src complex was exposed to compounds to screen for agonist or ouabain 10 μM plus compounds to screen antagonists for 10 min. Then, the Src kinase substrate Tyr 2 peptide or phosphor-peptide (control) was added. The reaction was initiated by addition of 2 mM ATP/Mg^2+, continued for 60 min.
The second step was Development Reaction. Each well was added 5 μl Development Solution, then mix the plate and incubate another 60 min. The assay was stopped by adding 5 μl stop reagent and then fluorescent signals were measured.

In assay [4] the test system is Src in LLC-PK1 cells. Kind of assay: Cell-based Src activation assay, LLC-PK1 cells. On the set-up: species or system pig. The settings on record: 20 μM OA. How it is done:
(§4) The second assay uses another pair of cell lines, LL-A416P-4 and LL-A420P-20. These cells were rat α1 A416P and A420P mutant-rescued PY-17 cells.
The pig kidney epithelia cells (LLC-PK1 cells) were obtained from ATCC and maintained in Dulbecco's modified Eagle's medium (DMEM) in the presence of 10% FBS, 100 units/ml penicillin, and 100 μg/ml streptomycin in a 5% CO2 humidified incubator. To eliminate the confounding effect of growth factors in the serum, cells were serum starved over night before experiments.
(§5) Referring now to FIG. 3A, cells were treated with indicated concentration of ouabain for 5 min, and total cell lysates were analyzed for pY418 and total Src. […] Values are mean±S.E. of at least three independent experiments. * p<0.05 compared with each control.
as §2

The test system of assay [5] is Src in P11 cells (LLC-PK1 transfected with empty vector). Kind of assay: Cell-based Src activation assay, control cell P11. On the set-up: species or system pig. The protocol:
(§6) To confirm that these agonists activate Src through the Na/K-ATPase, three complementary cell-based assays were established. One assay uses a LLC-PK1 derived al knockdown PY-17 cell, a control cell P11 (LLC-PK1transfected with empty vector), and another control cell AAC-19 (rat al-rescued PY-17 cells).
as §5, §2

The test system of assay [6] is Src in PY-17 cells (LLC-PK1 derived α1 knockdown). The assay is described as follows: Cell-based Src activation assay, α1 knockdown PY-17 cells. On the set-up: species or system pig. The settings on record: Na/K-ATPase knockdown. How it is done: as §6, §4, §5, §2
For assay [7], the system named is Src in LY-F286A-19 cells (F286A mutant Na/K-ATPase). The assay is described as follows: Cell-based Src activation assay, LY-F286A-19 cells. The settings on record: ouabain 10 min. How it is done:
(§7) The third assay uses other two cell lines (LY-I279A-3, LY-F286A-19), where the expressed I279A or F286A mutant Na/K-ATPase was defective in conformational transition (I279A and F286A mutants were defective in E1 to E2 and E2 to E1 conformational transition, respectively). […] Cell (LY-I279A-3 and LY-F286A-19) based Assay for agonist (ouabain): Cells were treated with indicated concentration of ouabain for 10 min, and total cell lysates were analyzed for pY418 and total Src. […] Values are mean±S.E. of at least three independent experiments. * p<0.05 compared with each control.
as §2

For assay [8], the system named is Src in LL-A416P-4 cells (rat α1 A416P mutant-rescued PY-17 cells). Kind of assay: Cell-based Src activation assay, LL-A416P-4 cells. The following applies: ouabain 10 min. The protocol: as §4
Cell (LL-A416P-4 and LL-A420P-20) based assay for agonist (ouabain): Cells were treated with indicated concentration of ouabain for 10 min, and total cell lysates were analyzed for pY418 and total Src. […] Values are mean±S.E. of at least three independent experiments. * p<0.05 compared with each control.
as §2

Assay [9] deals with Src in AAC-19 cells (rat α1-rescued PY-17 cells). The assay is described as follows: Cell-based Src activation assay, control cell AAC-19. The protocol:
as §6, §5, §2

The subject of assay [10] is Src in LY-I279A-3 cells (I279A mutant Na/K-ATPase). The assay is described as follows: Cell-based Src activation assay, LY-I279A-3 cells. The settings on record: ouabain 10 min. How it is done:
as §7, §2

Assay [11] has as its target T1, Na/K-ATPase/Src receptor complex. The assay is described as follows: Reconstituted Na/K-ATPase/Src receptor complex, Src pY418 by Western blot (kinase activity assay of Src). It counts as biochemical, pig. The following applies: ouabain 1 μM, 100 μM vanade to inactivate ATPase activity. How it is done:
as §3
Phosphorylation of Src pY 418, as an indicator of Src activation, was measured by Western blot. Ouabain was used at 1 μM and the assay was done in the presence of 100 μM vanade to inactivate ATPase activity. Values are mean±S.E. of at least three independent experiments. * p<0.05 compared with control. ** p<0.01 compared with control.
as §1
To determine whether the compound affect the Na/K-ATPase/Src receptor activity, the compounds was incubated with the purified Src (4.5 U) and 1 μg Na/K-ATPase for 15 min at 37° C. Afterward, 2 mM ATP/Mg^2+ was added. The reaction continued for 15 min at 37° C. and was stopped by addition of SDS sample buffer. Afterward, the Src pY418 was measured by anti-pY418 antibody to indicate Src activation.

Assay [12] deals with ERKs in LLC-PK1 cells. The assay is described as follows: Immunostaining assay for active ERK in LLC-PK1 cells. The class given is cell-based, pig. The following applies: pretreated cells exposed to 1 nM ouabain for 60 min. The protocol:
as §1
LLC-PK1 cells were pretreated with different concentrations of MB5 for 15 min, exposed to 1 nM ouabain for 60 min, and assayed for active ERKs. A representative set of images is shown. LLC-PK1 cells were pretreated with different concentrations of MB5 for 15 min, exposed to stimuli for either 10 or 3 min, and assayed for active ERKs. A representative set of images is shown.
The data presented in FIGS. 6C-6E show blocking ouabain-induced ERK activation by other antagonists of receptor Na/K-ATPase/Src complex. […] Both control and Tanshinone I-pretreated cells were exposed to ouabain (1 nM) for 1 hour, and processed for immuno-staining of active ERK as in FIG. 6A. A representative set of images are presented from three separate experiments.
LLC-PK1 cells grown on coverslip were serum-starved and treated with MB5 or stimuli for indicated time. […] The signals were detected by a Leica (Wetzlar, Germany) confocal microscope. […]

For the molecule `O=c1c2ccc(O)c(O)c2oc2c(O)c(O)ccc12` [MB7, 3,4,5,6-tetrahydroxyxanthone], the “effect on ouabain-induced signal transduction” value in assay [1] was “antagonize”.
As for `CC(C)(O)[C@@H]1CC[C@](C)([C@H]2[C@@H](O)C[C@@]3(C)[C@@H]4C[C@H](O[C@@H]5O[C@H](CO)[C@@H](O)[C@H](O)[C@H]5O)[C@H]5C(C)(C)[C@@H](O[C@@H]6OC[C@@H](O)[C@H](O)[C@H]6O)CC[C@@]56C[C@@]46CC[C@]23C)O1` [astragaloside IV], the “effect on ouabain-induced ERK activation” value in assay [2] is recorded as “inhibitory effects”. Moreover, the “identification as antagonist of receptor Na/K-ATPase/Src complex (ouabain antagonist)” value in [3] is reported as “identified; also recorded: receptor antagonists”.
Regarding `COc1cc(/C=C/C(=O)CC(=O)/C=C/c2ccc(O)c(OC)c2)ccc1O` [curcumin], the “identification as antagonist of receptor Na/K-ATPase/Src complex (ouabain antagonist)” value in assay [3] is given as “receptor antagonists”.
Take `O=C(O)[C@H](O)Cc1ccc(O)c(O)c1` [danshensu]: the results for the “identification as antagonist of receptor Na/K-ATPase/Src complex (ouabain antagonist)” value in assay [3] and in assay [3] (listed as Tanshensu) were “identified” and “receptor antagonists”, respectively.
Regarding `COc1cc(/C=C/C(=O)O)ccc1O` [ferulic acid], in [2], the “effect on ouabain-induced ERK activation” value is given as “inhibitory effects”. In assay [3], the “identification as antagonist of receptor Na/K-ATPase/Src complex (ouabain antagonist)” value is “identified; also recorded: receptor antagonists”.
As to `CCCCCCCC/C=C\CCCCCCCC(=O)O` [oleic acid], the “Src activation (pY418 / total Src)” value in assay [4] is given as “activated Src”.
With `C[C@@H]1O[C@@H](O[C@H]2C[C@@H](O)[C@]3(CO)[C@H]4[C@H](O)C[C@]5(C)[C@@H](C6=CC(=O)OC6)CC[C@]5(O)[C@@H]4CC[C@]3(O)C2)[C@H](O)[C@H](O)[C@H]1O` [ouabain], the “Src activation (pY418 / total Src)” value is listed as “activate Src” in assay [5]; “abolished their effects” in [6]; “could no longer activate Src” in assay [7]; “activated Src” in assay [8]; “activate Src” in [9]; “could no longer activate Src” in assay [10].
As for `Cc1coc2c1C(=O)C(=O)c1c-2ccc2c1CCCC2(C)C` [tanshinone IIA], in [11], the “effect on ouabain-induced Src activation (Src pY418)” value is reported as “antagonizing effects”. Besides, in [3], the “identification as antagonist of receptor Na/K-ATPase/Src complex (ouabain antagonist)” value is “identified”.
Turning to `Cc1coc2c1C(=O)C(=O)c1c-2ccc2c(C)cccc12` [tanshinone I], the “effect on ouabain-induced Src activation (Src pY418)” value in assay [11] is “antagonizing effects”. In addition, the “effect on ouabain-induced ERK activation” value in assay [2] is “inhibitory effects”. For the same molecule, the “effect on ouabain-induced activation of ERKs” value in assay [12] was “inhibition”. Also, the “identification as antagonist of receptor Na/K-ATPase/Src complex (ouabain antagonist)” value in assay [3] is “identified”.
